Reference: ChEMBL document CHEMBL1127743, “Structure-based design of HIV-1 protease inhibitors: replacement of two amides and a 10 pi-aromatic system by a fused bis-tetrahydrofuran” (J Med Chem, 1994)

Assays:
[1] = target: Human immunodeficiency virus type 1 protease (Human immunodeficiency virus 1, UniProt Q72874); test: Tested for inhibitory activity against HIV protease enzyme
[2] = target: Human immunodeficiency virus type 1 protease (Human immunodeficiency virus 1) (UniProt Q72874)
Description: Tested for antiviral potency against HIV protease enzyme

With CC(C)(C)NC(=O)[C@@H]1C[C@@H]2CCCC[C@@H]2CN1C[C@@H](O)[C@H](Cc1ccccc1)NC(=O)O[C@@H]1CO[C@@H]2OCC[C@@H]21 the IC50 [1] was 0.0064 µM and the IC95 [2] was 0.2 µM.
